According to article PMC9505425, “Targeting of the Mitochondrial TET1 Protein by Pyrrolo[3,2-b]pyrrole Chelators” (International Journal of Molecular Sciences, 2022):
Where “and” joins values, the source holds several entries; their conditions need not be identical. Equal values may be shown once.

Experiments:
[1] = MTT cytotoxicity assay, HF-P4; format: cell-based, human; settings: human, HF-P4 normal human dermal fibroblasts, repeats, read-out: Cell viability %
Procedure: (§1) The effects of the tested compounds 1–6 on HF-P4, U-118 MG, H1299, BT-20, and Caov-3 cell lines were evaluated by the MTT assay during 48 h treatment (Table 2 and Tables S2–S31). In all tested compounds, we recognized a difference in cytotoxicity between healthy cells (HF-P4) and cancer cell lines (BT-20, Caov-3, and H-1299). […] In the case of ovarian cancer, the authors discovered oncogenic and poor prognosis roles of TET1 in epithelial ovarian carcinoma (EOC). TET1 is believed to demethylate the epigenome and activate numerous oncogenic pathways in EOC. The aforementioned study presents a new mechanism where TET1 contributes to tumor development through collaboration with CK2α [21]. The overexpression of the TET1 protein was also found in triple negative breast cancer and was associated with an activation of PI3K/mTOR pathway and decreased overall survival.
(§2) A human dermal fibroblast cell line was used for intracellular localization and cytotoxicity assay (MTT). Human fibroblast cells HF-P4 (human fibroblasts—patient 4) are normal dermal fibroblasts, which were obtained from the residual skin of a healthy patient who underwent plastic surgery (with informed consent of the patient). HF-P4 cell lines were obtained from the Department of Plastic Surgery, Third Faculty of Medicine, Charles University and University Hospital Královské Vinohrady, Prague, Czech Republic, as described by Szabo et al., 2011, and Dvořánková et al., 2019 [88, 89], and have been processed in accordance with the relevant local ethics committee and the Declaration of Helsinki protection of patients’ rights and benefits with written and signed informed consent of each patient. Cells were cultivated under standard conditions in Dulbecco’s modified Eagle’s medium (ATCC, Manassas, VA, USA), supplemented with 10% FBS and streptomycin (100 μg/mL) at 37 °C at a 5% CO2 atmosphere.
(§3) For the cytotoxicity assay, we used the following cell lines: human glioblastoma cell line U118-MG, human mammary gland/breast cell line BT-20, human ovary adenocarcinoma cell line Caov-3, and non-small-cell lung carcinoma H-1299. As previously mentioned, these cell lines contain a high level of the TET1 protein, which corresponds to a lower overall survival. In addition to these cell cultures, we used the human dermal fibroblast cell line HF-P4 as a healthy control. Determination of cytotoxicity was performed using the MTT [3-(4,5-dimethylthiazol-2-yl)-2,5-diphenyltetrazolium bromide] colorimetric assay. Viable cells from each cell line were cultured in 96-well plates (VWR, Stříbrná Skalice, Czech Republic) at a density of 1.0 × 10^5 cells per well and allowed to grow for 24 h in 200 μL of recommended medium. After a 1-day incubation, the medium was replaced with solutions of compounds 1–6 at concentration ranges of 0.1–20 μM. Each concentration was measured four times within one test, and the entire test was repeated three times. Tested compounds 1–6 were dissolved in DMSO and then diluted with corresponding medium to a final volume of 200 μL (maximum 1% DMSO). After 48 h exposure, cells were treated with 175 μL of MTT solution (P-LAB, Prague, Czech Republic) for 2 h. In the next step, MTT solution was removed, and 125 μL of DMSO (Penta, Prague, Czech Republic) was added to solubilize dark crystals of formazan formed in intact cells, and absorbance was measured at 570 nm by the enzyme-linked immunoabsorbent assay reader Infinite® 200 PRO (Tecan, Männedorf, Switzerland). The final DMSO concentration was smaller than 1% (v/v). The absorbance of untreated cells was considered 100%, and IC50 values were calculated by the GraphPad Prism 8 software. As a parameter for cytotoxicity, we used a concentration that inhibits 50% of cell growth (IC50).

HF-P4 cells = assay: MTT cytotoxicity assay, HF-P4; format: cell-based, human; settings: 48 h; for Cell viability %: repeats
Procedure: as §1, §2, §3

Caov-3 cells = assay: MTT cytotoxicity assay, Caov-3; format: cell-based, human
Procedure: as §1
The human ovary adenocarcinoma cell line (Caov-3), purchased from ATCC (Caov-3 (ATCC® HTB-75™), Manassas, VA, USA), was used for the cytotoxicity assay (MTT). Caov-3 cells were cultivated under standard conditions in Dulbecco’s modified Eagle’s medium (ATCC, Manassas, VA, USA) supplemented with 10% FBS and streptomycin (100 μg/mL) at 37 °C at a 5% CO2 atmosphere.
as §3

BT-20 cells = assay: MTT cytotoxicity assay, BT-20; format: cell-based, human
Procedure: as §1
The human mammary gland/breast cell line (BT-20), purchased from ATCC (BT-20 (ATCC® HTB-19™), Manassas, VA, USA), was used for the cytotoxicity assay (MTT), and BT-20 cells were cultivated under standard conditions in Eagle’s minimum essential medium (ATCC, Manassas, VA, USA) supplemented with 10% FBS and streptomycin (100 μg/mL) at 37 °C at a 5% CO2 atmosphere.
as §3

CCN(CC)c1ccc(/C=N/NC(=O)c2ccc(-c3cc4c(cc(-c5ccc(C(=O)N/N=C/c6ccc(N(CC)CC)cc6O)cc5)n4-c4ccc(C)cc4)n3-c3ccc(C)cc3)cc2)c(O)c1 [Compound 2] showed a viability at 48 h, 0.5 µM ([1]; HF-P4, 500 nM) of 120%, a viability at 48 h, 0.75 µM ([1]; HF-P4, 750 nM) of 100% and a viability at 48 h, 1 µM ([1]; HF-P4, 1 uM) of 107%. The viability at 48 h, 5 µM ([1]; HF-P4, 5 uM) was 104%, the viability at 48 h, 7.5 µM ([1]; HF-P4, 7.5 uM) was 84.4% and the viability at 48 h, 10 µM ([1]; HF-P4, 10 uM) was 83.1%. The viability at 48 h, 15 µM ([1]; HF-P4, 15 uM) was 69.4%, the viability at 48 h, 20 µM ([1]; HF-P4, 20 uM) was 60.3% and the Cell viability % (HF-P4 cells; HF-P4, 100 nM, 0.1 µM) was 112.667% and 100.0956% and 124.6811%. For the same compound, the Cell viability % (HF-P4 cells; HF-P4, 500 nM, 0.5 µM) was 121.1654% and 117.1851%, the Cell viability % (HF-P4 cells; HF-P4, 750 nM, 0.75 µM) was 106.3799% and 108.6149% and the Cell viability % (HF-P4 cells; HF-P4, 1 uM, 1 µM) was 107.7419% and 92.48%. The Cell viability % (HF-P4 cells; HF-P4, 2.5 uM, 2.5 µM) was 91.9392% and 112.4492% and 91.41%, the Cell viability % (HF-P4 cells; HF-P4, 5 uM, 5 µM) was 91.3% and 88.77% and the Cell viability % (HF-P4 cells; HF-P4, 7.5 uM, 7.5 µM) was 87.79% and 98.14%. For the same compound, the Cell viability % (HF-P4 cells; HF-P4, 10 uM, 10 µM) was 82.92% and 77.13%, the Cell viability % (HF-P4 cells; HF-P4, 15 uM, 15 µM) was 82.13% and 69.58% and the Cell viability % (HF-P4 cells; HF-P4, 20 uM, 20 µM) was 51.8655% and 56.81%. For the same compound, the IC50 (HF-P4 cells; Homo sapiens, MTT) was > 20 µM, the Cell viability % (Caov-3 cells; Caov-3, 100 nM, 48 h, repeats, 0.1 µM) was 105.779% and 93.87% and the Cell viability % (Caov-3 cells; Caov-3, 500 nM, 48 h, repeats, 0.5 µM) was 78.8105% and 77.85%. For the same compound, the Cell viability % (Caov-3 cells; Caov-3, 750 nM, 48 h, repeats, 0.75 µM) was 73.37% and 52.9% and 76.29%, the Cell viability % (Caov-3 cells; Caov-3, 1 uM, 48 h, repeats, 1 µM) was 78.5% and 67.16% and 48.54% and the Cell viability % (Caov-3 cells; Caov-3, 2.5 uM, 48 h, repeats, 2.5 µM) was 64.6096% and 82.47% and 61.81%. The Cell viability % (Caov-3 cells; Caov-3, 5 uM, 48 h, repeats, 5 µM) was 59.21% and 86.03% and 70.4727%, the Cell viability % (Caov-3 cells; Caov-3, 7.5 uM, 48 h, repeats, 7.5 µM) was 79.2% and 67.97% and the Cell viability % (Caov-3 cells; Caov-3, 10 uM, 48 h, repeats, 10 µM) was 51.36% and 52.95%. For the same compound, the Cell viability % (Caov-3 cells; Caov-3, 15 uM, 48 h, repeats, 15 µM) was 50.9752% and 42.33%, the Cell viability % (Caov-3 cells; Caov-3, 20 uM, 48 h, repeats, 20 µM) was 25.3% and 23.25% and the viability at 0.1 µM (Caov-3 cells; Homo sapiens, Caov-3, 48 h, Caov-3, 100 nM, repeats, read-out: Cell viability %) was 95.3%. For the same compound, the viability at 0.5 µM (Caov-3 cells; Homo sapiens, Caov-3, 48 h, Caov-3, 500 nM, repeats, read-out: Cell viability %) was 76.2%, the viability at 7.5 µM (Caov-3 cells; Homo sapiens, Caov-3, 48 h, Caov-3, 7.5 uM, repeats, read-out: Cell viability %) was 73.3% and the viability at 10 µM (Caov-3 cells; Homo sapiens, Caov-3, 48 h, Caov-3, 10 uM, repeats, read-out: Cell viability %) was 52.1%. The viability at 15 µM (Caov-3 cells; Homo sapiens, Caov-3, 48 h, Caov-3, 15 uM, repeats, read-out: Cell viability %) was 42.8%, the viability at 20 µM (Caov-3 cells; Homo sapiens, Caov-3, 48 h, Caov-3, 20 uM, repeats, read-out: Cell viability %) was 28.4% and the IC50 (Caov-3 cells; Homo sapiens, Caov-3, MTT, 48 h) was 13.3 µM. The Cell viability % (BT-20 cells; BT-20, 100 nM, 48 h, repeats, 0.1 µM) was 89.53% and 96.38% and 111.3369%, the Cell viability % (BT-20 cells; BT-20, 500 nM, 48 h, repeats, 0.5 µM) was 89.9% and 93.14% and the Cell viability % (BT-20 cells; BT-20, 750 nM, 48 h, repeats, 0.75 µM) was 105.3004% and 102.8159%. The Cell viability % (BT-20 cells; BT-20, 1 uM, 48 h, repeats, 1 µM) was 123.7041% and 111.0298% and 97.09%, the Cell viability % (BT-20 cells; BT-20, 2.5 uM, 48 h, repeats, 2.5 µM) was 100.513% and 96.3761% and the Cell viability % (BT-20 cells; BT-20, 5 uM, 48 h, repeats, 5 µM) was 79.33% and 68.98%. For the same compound, the Cell viability % (BT-20 cells; BT-20, 7.5 uM, 48 h, repeats, 7.5 µM) was 62.62% and 57%, the Cell viability % (BT-20 cells; BT-20, 10 uM, 48 h, repeats, 10 µM) was 57.5% and 51.13% and the Cell viability % (BT-20 cells; BT-20, 15 uM, 48 h, repeats, 15 µM) was 49.9% and 44.54%. For the same compound, the Cell viability % (BT-20 cells; BT-20, 20 uM, 48 h, repeats, 20 µM) was 24.61% and 32.37%, the viability at 0.5 µM (BT-20 cells; Homo sapiens, BT-20, 48 h, BT-20, 500 nM, repeats, read-out: Cell viability %) was 89.8% and the viability at 0.75 µM (BT-20 cells; Homo sapiens, BT-20, 48 h, BT-20, 750 nM, repeats, read-out: Cell viability %) was 88.9%. It also gave a viability at 2.5 µM (BT-20 cells; Homo sapiens, BT-20, 48 h, BT-20, 2.5 uM, repeats, read-out: Cell viability %) of 98.6%, a viability at 5 µM (BT-20 cells; Homo sapiens, BT-20, 48 h, BT-20, 5 uM, repeats, read-out: Cell viability %) of 73.8% and a viability at 7.5 µM (BT-20 cells; Homo sapiens, BT-20, 48 h, BT-20, 7.5 uM, repeats, read-out: Cell viability %) of 60.2%. It also gave a viability at 10 µM (BT-20 cells; Homo sapiens, BT-20, 48 h, BT-20, 10 uM, repeats, read-out: Cell viability %) of 45%, a viability at 15 µM (BT-20 cells; Homo sapiens, BT-20, 48 h, BT-20, 15 uM, repeats, read-out: Cell viability %) of 46.7% and a viability at 20 µM (BT-20 cells; Homo sapiens, BT-20, 48 h, BT-20, 20 uM, repeats, read-out: Cell viability %) of 28.3%. It also gave an IC50 (BT-20 cells; Homo sapiens, BT-20, MTT, 48 h) of 11.9 µM and a melting point of 306 to 307 °C.
